Square brackets hold non-standard residues; d marks the D form. Peptide text beside a SMILES is read from it. NMeW = CN[C@@H](Cc1c[nH]c2ccccc12)C(=O)O; NMeL = CN[C@@H](CC(C)C)C(=O)O; dNMeL = CN[C@H](CC(C)C)C(=O)O
Tests used:
[1] = Apparent permeability of the compound at 50 uM after 5 hrs by PAMPA method; assay type: physicochemical
[2] = Apparent permeability from apical to basolateral side in human Caco2 cells by LC-MS analysis; assay type: ADME, cell-based; settings: Caco-2

Papp at 5 h, 50 µM [1] [×10⁻⁶ cm/s] | Papp A→B [2] [×10⁻⁶ cm/s] | SMILES
0.09 | 0.2 | C[C@@H](O)[C@@H]1NC(=O)[C@@H](CCCCN)NC(=O)[C@@H](Cc2c[nH]c3ccccc23)NC(=O)[C@H](Cc2ccccc2)NC(=O)[C@@H]2CCCN2C(=O)[C@@H](Cc2ccccc2)NC1=O
0.67 | 11.9 | CC(C)C[C@@H]1NC(=O)[C@@H](CC(C)C)N(C)C(=O)[C@@H](CC(C)C)N(C)C(=O)[C@H](Cc2ccc(O)cc2)NC(=O)[C@@H]2CCCN2C(=O)[C@@H](CC(C)C)NC1=O
2.3 | 13.9 | CC(C)C[C@@H]1NC(=O)[C@H](CC(C)C)N(C)C(=O)[C@@H](CC(C)C)N(C)C(=O)[C@H](Cc2ccc(O)cc2)NC(=O)[C@@H]2CCCN2C(=O)[C@H](CC(C)C)N(C)C1=O
3.33 | 9.46 | CC(C)C[C@@H]1NC(=O)[C@H](Cc2c[nH]c3ccccc23)NC(=O)[C@H]2CCCN2C(=O)[C@@H](CC(C)C)NC(=O)[C@@H](CC(C)C)NC(=O)[C@@H](CC(C)C)NC1=O
0.19 | 0.21 | CC(C)C[C@@H]1NC(=O)[C@H](Cc2c[nH]c3ccccc23)NC(=O)[C@@H]2CCCN2C(=O)[C@H]2CCCN2C(=O)[C@@H](CC(C)C)NC(=O)[C@H](CC(C)C)NC1=O
0.28 | 0.36 | CC(C)C[C@@H]1NC(=O)[C@@H](CC(C)C)NC(=O)[C@@H](CC(C)C)NC(=O)[C@@H](CC(C)C)NC(=O)[C@H](Cc2c[nH]c3ccccc23)NC(=O)[C@@H]2CCCN2C1=O
2.53 | 17.5 | CC(C)C[C@@H]1NC(=O)[C@@H](CC(C)C)NC(=O)[C@@H](CC(C)C)NC(=O)[C@H](Cc2c[nH]c3ccccc23)NC(=O)[C@@H]2CCCN2C(=O)[C@@H](CC(C)C)NC1=O
1.67 | 5.95 | CC(C)C[C@@H]1NC(=O)[C@H](Cc2c[nH]c3ccccc23)NC(=O)[C@H]2CCCN2C(=O)[C@H](CC(C)C)NC(=O)[C@H](CC(C)C)NC(=O)[C@@H](CC(C)C)NC1=O
0.41 | 3.06 | CC[C@H](C)[C@@H]1NC(=O)[C@H](Cc2c[nH]c3ccccc23)NC(=O)[C@H]2CCCN2C(=O)[C@H]([C@@H](C)CC)NC(=O)[C@H]([C@@H](C)CC)NC(=O)[C@@H](CC(C)C)NC1=O
0.01 | 0.27 | CC(C)C[C@@H]1NC(=O)[C@H](Cc2ccccc2)NC(=O)CNC(=O)[C@H](C)NC(=O)[C@H](Cc2ccc(O)cc2)NC(=O)[C@H]2CCCN2C1=O
0.07 | 0.58 | CC(C)C[C@H]1NC(=O)[C@H](Cc2ccccc2)NC(=O)CNC(=O)[C@@H](C)NC(=O)[C@H](Cc2ccc(O)cc2)NC(=O)[C@@H]2CCCN2C1=O
0.02 | 0.72 | CC(C)C[C@@H]1NC(=O)[C@@H](CC(C)C)NC(=O)[C@H](Cc2ccccc2)NC(=O)CNC(=O)[C@@H](C)NC(=O)[C@H](Cc2ccc(O)cc2)NC1=O
0.01 | < 0.14 | CC(C)C[C@H]1NC(=O)[C@@H](Cc2ccccc2)NC(=O)CNC(=O)[C@H](C)NC(=O)[C@H](Cc2ccc(O)cc2)NC(=O)[C@@H]2CCCN2C1=O
0.01 | 0.09 | CC(C)C[C@@H]1NC(=O)[C@@H](Cc2ccccc2)NC(=O)CNC(=O)[C@@H](C)NC(=O)[C@H](Cc2ccc(O)cc2)NC(=O)[C@@H]2CCCN2C1=O
0.03 | < 0.14 | CC(C)C[C@@H]1NC(=O)[C@H](Cc2ccccc2)NC(=O)CNC(=O)[C@@H](C)NC(=O)[C@H](Cc2ccc(O)cc2)NC(=O)[C@@H]2CCCN2C1=O
0.35 | 1.08 | CC(C)C[C@@H]1NC(=O)[C@H](Cc2ccccc2)N(C)C(=O)CN(C)C(=O)[C@H](C)NC(=O)[C@H](Cc2ccc(O)cc2)N(C)C(=O)[C@H]2CCCN2C1=O
0.16 | 0.1 | CC(C)C[C@H]1C(=O)N2CCC[C@@H]2C(=O)N(C)[C@@H](Cc2ccc(O)cc2)C(=O)N[C@@H](C)C(=O)NCC(=O)N(C)[C@@H](Cc2ccccc2)C(=O)N1C
0.07 | 0.63 | CC(C)C[C@H]1NC(=O)[C@H](Cc2ccccc2)NC(=O)CN(C)C(=O)[C@@H](C)N(C)C(=O)[C@H](Cc2ccc(O)cc2)NC(=O)[C@@H]2CCCN2C1=O
0.93 | 4.77 | CC(C)C[C@@H]1C(=O)N(C)[C@@H](CC(C)C)C(=O)N[C@@H](Cc2ccc(O)cc2)C(=O)N(C)[C@H](C)C(=O)N(C)CC(=O)N[C@@H](Cc2ccccc2)C(=O)N1C
0.03 | < 0.14 | CC(C)C[C@H]1NC(=O)[C@@H](Cc2ccccc2)NC(=O)CN(C)C(=O)[C@H](C)N(C)C(=O)[C@H](Cc2ccc(O)cc2)NC(=O)[C@@H]2CCCN2C1=O
0.14 | < 0.14 | CC(C)C[C@H]1C(=O)N2CCC[C@H]2C(=O)N[C@@H](Cc2ccc(O)cc2)C(=O)N(C)[C@H](C)C(=O)N(C)CC(=O)N[C@H](Cc2ccccc2)C(=O)N1C
– | < 0.14 | CC(C)C[C@H]1C(=O)N2CCC[C@H]2C(=O)N[C@@H](Cc2ccc(O)cc2)C(=O)N(C)[C@H](C)C(=O)N(C)CC(=O)N[C@@H](Cc2ccccc2)C(=O)N1C

Papp at 5 h, 50 µM [1] [×10⁻⁶ cm/s] | Papp A→B [2] [×10⁻⁶ cm/s] | SMILES
0.41 | 12 | CC(C)C[C@@H]1NC(=O)[C@H](Cc2ccccc2)NC(=O)[C@@H](CC(C)C)N(C)C(=O)[C@H](CC(C)C)N(C)C(=O)[C@H](Cc2ccc(O)cc2)NC(=O)[C@@H]2CCCN2C1=O
– | < 0.14 | CN1C(=O)[C@H]2CCCN2C(=O)[C@H](CCCCN)NC(=O)[C@H](CCCNC(=N)N)NC(=O)[C@@H](CCCNC(=N)N)NC(=O)[C@H](CCCNC(=N)N)NC(=O)[C@@H]1Cc1c[nH]c2ccccc12
< 0.01 | < 0.14 | C[C@@H]1NC(=O)[C@H](C)N(C)C(=O)[C@H](C)NC(=O)[C@H](C)N(C)C(=O)[C@H](C)NC(=O)[C@@H](C)NC1=O
0.09 | 0.1 | CC(C)C[C@@H]1NC(=O)[C@H](Cc2ccc(O)cc2)NC(=O)[C@@H]2CCCN2C(=O)[C@H]2CCCN2C(=O)[C@@H](CC(C)C)NC(=O)[C@H](CC(C)C)NC1=O
0.96 | 10.8 | CC(C)C[C@@H]1NC(=O)[C@H](Cc2ccc(O)cc2)NC(=O)[C@H]2CCCN2C(=O)[C@H](CC(C)C)NC(=O)[C@H](CC(C)C)N(C)C(=O)[C@@H](CC(C)C)N(C)C1=O
1.51 | 7.75 | CC(C)C[C@@H]1NC(=O)[C@@H](CC(C)C)N(C)C(=O)[C@H](CC(C)C)NC(=O)[C@H](Cc2ccc(O)cc2)N(C)C(=O)[C@H]2CCCN2C(=O)[C@H](CC(C)C)NC1=O
1.31 | 11.3 | CC(C)C[C@@H]1NC(=O)[C@H](Cc2ccc(O)cc2)N(C)C(=O)[C@H]2CCCN2C(=O)[C@H](CC(C)C)NC(=O)[C@H](CC(C)C)N(C)C(=O)[C@@H](CC(C)C)NC1=O
3.83 | 21.8 | CC(C)C[C@@H]1NC(=O)[C@H](Cc2ccc(O)cc2)NC(=O)[C@@H]2CCCN2C(=O)[C@@H](CC(C)C)NC(=O)[C@@H](CC(C)C)N(C)C(=O)[C@@H](CC(C)C)N(C)C1=O
1.11 | 5.45 | CC(C)C[C@H]1NC(=O)[C@H](CC(C)C)N(C)C(=O)[C@H](CC(C)C)N(C)C(=O)[C@H](Cc2ccc(O)cc2)NC(=O)[C@@H]2CCCN2C(=O)[C@H]2CCCN2C1=O
1.88 | 16.4 | CC(C)C[C@@H]1C(=O)N(C)[C@H](CC(C)C)C(=O)N[C@H](CC(C)C)C(=O)N(C)[C@@H](CC(C)C)C(=O)N2CCC[C@H]2C(=O)N[C@@H](Cc2ccc(O)cc2)C(=O)N1C
0.1 | 14.7 | CC(C)C[C@@H]1NC(=O)[C@@H](CC(C)C)N(C)C(=O)[C@@H](CC(C)C)N(C)C(=O)[C@H](Cc2ccc(O)cc2)NC(=O)[C@@H]2CCCN2C(=O)[C@@H](CC(C)C)N(C)C1=O
1.52 | 15.8 | CC(C)C[C@@H]1C(=O)N(C)[C@@H](CC(C)C)C(=O)N(C)[C@@H](CC(C)C)C(=O)N2CCC[C@@H]2C(=O)N[C@@H](Cc2ccc(O)cc2)C(=O)N(C)[C@@H](CC(C)C)C(=O)N1C
0.29 | 1.04 | CC(C)C[C@@H]1NC(=O)[C@H](CC(C)C)N(C)C(=O)[C@H](Cc2ccc(O)cc2)NC(=O)[C@@H]2CCCN2C(=O)[C@H]2CCCN2C(=O)[C@@H](CC(C)C)NC1=O
0.08 | 0.93 | C[C@@H](O)[C@@H]1NC(=O)[C@H](CCCCN)NC(=O)[C@@H](Cc2c[nH]c3ccccc23)NC(=O)[C@H](Cc2ccccc2)NC(=O)[C@@H]2CCCN2C(=O)[C@H](Cc2ccccc2)NC1=O
0.02 | 0.46 | CC(C)C[C@@H]1NC(=O)[C@H](Cc2ccccc2)NC(=O)[C@H]([C@@H](C)O)NC(=O)CNC(=O)[C@H](C)NC(=O)[C@H](Cc2ccc(O)cc2)NC1=O (cyclo(AGTFLY))
0.01 | 0.02 | CC(C)C[C@@H]1NC(=O)CNC(=O)[C@H](Cc2ccccc2)NC(=O)[C@H](CC(N)=O)NC(=O)[C@H](Cc2ccc(O)cc2)NC(=O)[C@H](C)NC1=O (cyclo(AYNFGL))
– | 6.82 | CC(C)C[C@H]1C(=O)N2CCC[C@H]2C(=O)N[C@@H](Cc2ccccc2)C(=O)N[C@@H](Cc2ccccc2)C(=O)N[C@@H](Cc2c[nH]c3ccccc23)C(=O)N[C@@H](C(C)C)C(=O)N1C (cyclo(FFWV[NMeL]P))
– | 1.7 | CC(C)C[C@@H]1NC(=O)[C@H](C(C)C)NC(=O)[C@H](Cc2c[nH]c3ccccc23)N(C)C(=O)[C@H](Cc2ccccc2)NC(=O)[C@H](Cc2ccccc2)NC(=O)[C@@H]2CCCN2C1=O (cyclo(FF[NMeW]VLP))
– | 0.11 | CC[C@H](C)[C@@H]1NC(=O)[C@H](C(C)C)NC(=O)[C@H](CC(C)C)NC(=O)CNC(=O)[C@@H]2CCCN2C(=O)[C@H](Cc2ccc(O)cc2)NC1=O (cyclo(GLVIYP))
0.77 | – | CC(C)C[C@@H]1NC(=O)[C@@H](CC(C)C)N(C)C(=O)[C@H](CC(C)C)NC(=O)[C@H](Cc2ccc(O)cc2)NC(=O)[C@H]2CCCN2C(=O)[C@H](CC(C)C)NC1=O (cyclo(LL[dP]YL[dNMeL]))
3.28 | – | C=C[C@H]1C[N@@]2CC[C@H]1C[C@@H]2[C@@H](O)c1ccnc2ccc(OC)cc12 [QUINIDINE]

Source: ChEMBL document CHEMBL3425496, “Exploring experimental and computational markers of cyclic peptides: Charting islands of permeability” (Eur J Med Chem, 2015)
